Measurements: patent US20070141181A1, “Use of anabolic agents, anti-catabolic agents, antioxidant agents, and analgesics for protection, treatment and repair of connective tissues in humans and animals” (NUTRAMAX LABORATORIES, INC., priority 1998, published 2007)
Values joined by “and” are separate entries in the source; they are usually repeats but may differ in a detail not shown here. Equal entries are not always repeated.

Tested on: adult bovine cartilage cells
Test: GAG synthesis (35-sulfate incorporation) in cultured cartilage cells
Type: cell-based
Settings: 4 hours incubation, individual agent
Experimental: Articular cartilage was resected from human or animal joints aseptically and placed into a large petri dish in a small amount of DMEM/F-12 or F-12. The tissue was diced to 1-2 mm dimensions and transferred to a small culture flask containing 20 mL DMEM or F-12+400 u/mL collagenase. The flask was placed on the shaker and incubated overnight.
The cell digest was repeatedly aspirated to increase release of cells. The cell digest was then placed into a 50 mL sterile centrifuge tube and centrifuged in the Beckman at 1000 RPM for 10 minutes. The medium was discarded by pipette and fresh DMEM/F-12 containing 1% FCS added. Depending on the size of the pellet, about […] medium was added. Cell counts were determined by haemocytometer and the digest made up to a concentration of 100,000 cells/0.2 mL.
To conduct GAG synthesis, 0.2 mL was aliquoted into each well of a 96 well plate using an 8 channel pipetter and the cells allowed to attach for 24 hours. The media was removed and 0.3 mL of fresh 1% FCS media added for 2-3 days. On the day of the experiment, the media was removed and the experimental solutions containing 35-sulfate isotope were added. The incubation was continued for 4 hours. Termination: at the end of the incubation period, the labeling media was removed, the cell layer was rinsed repeatedly with cold 0.3 mL DMEM or F-12 (about 5 times.), and the cell layer was frozen for counting.
The cell layer for both the synthesis experiments were heated at 50 degrees after adding 100 ul 1 N NaOH for a period of 2 hours. 200 ul scintillant was added and the plates were placed in the counter. The data was expressed as CPM/100,000 cells.

Compound	Indv. Agents: CPM/100,000 cells	Indv. Agents: CPM/100,000 cells (listed as 3% Sam)	Indv. Agents: CPM/100,000 cells (listed as ChS04-H)
C[S+](CC[C@H](N)C(=O)[O-])C[C@H]1O[C@@H](n2cnc3c(N)ncnc32)[C@H](O)[C@@H]1O (some centres unmarked) [1% Sam, S-adenosylmethionine]	123 CPM/100,000 cells	42 CPM/100,000 cells	
CCCCC/C=C\C/C=C\C/C=C\C/C=C\CCCC(=O)O [AA, Arachadonic Acid]	70 CPM/100,000 cells		
N[C@H]1C(O)O[C@H](CO)[C@@H](O)[C@@H]1O (some centres unmarked) [Glu-H, Glucosamine]	117 CPM/100,000 cells		
Chondroitin [CHSO4-L]	64 CPM/100,000 cells		50 CPM/100,000 cells
Collagen	118 CPM/100,000 cells (3×) and 70 CPM/100,000 cells		
Pentosan [10Pentos]	76 CPM/100,000 cells		
